Where two headings read alike, the source gives them in different places.
Test: Food effect PK study, two single oral 1000 mg doses of abiraterone acetate, fed (high fat) vs fasted
Assay type: in vivo, human
Settings: for clearance: read-out: Cl F obs (converted); for Vd/F: read-out: Vz F obs; for concentration at 1.017 h: sample time 1.017; for concentration at 6 h: sample time 6.000; for concentration at 2 h: sample time 2.000; for concentration at 4 h: sample time 4.000; for concentration at 8.033 h: sample time 8.033; for concentration at 24 h: sample time 24.000; for concentration at 48.083 h: sample time 48.083
Procedure: To measure the amount of abiraterone and abiraterone acetate in the samples, these compounds were extracted from 100 uL human plasma using solid phase extraction (SPE) with cation mixed-mode polymer cartridges. Extracts were evaporated to dryness before reconstitution and analysis. Chromatography was carried out using a Luna™ C5 column (5 μm, 50 mm×2.1 mm id) with a gradient mobile phase consisting of 10 mM ammonium acetate and 2% propan-2-ol in acetonitrile. The flow rate was 0.2 mL/min and the run time 10.5 minutes. Abiraterone and abiraterone acetate were ionized using the electrospray interface in positive ion mode. Detection of analytes was via tandem mass spectrometry (MS/MS) in the multiple reaction monitoring (MRM) mode.
PK modeling was conducted using a non-compartmental model, extra vascular input for plasma with WinNonLin Software®. Pharmacokinetic parameters estimated in the model include:
Based on the above results, the PK parameters for a single dose of 1000 mg/day of abiraterone acetate were further studied in the 3 subjects who were administered the 1000 mg/day dose and in 3 additional subjects. Two single oral doses (1000 mg) of abiraterone acetate were administered separately, one concomitantly with food of high fat content and one in fasting state. The first single dose was administered on day −9 with PK blood samples being taken at 1, 2, 4, 6, 8, 24, 48 and 72 hours post dose. The second single dose was administered on day −3 with PK blood samples being taken at 1, 2, 4, 6, 8, 24 and 48 hours post dose for analysis.

[1] = human, plasma, oral, 1000 mg, Patient 19, 1000 mg, Fasted
[2] = human, plasma, oral, 1000 mg, Patient 19, 1000 mg, Fed
[3] = human, plasma, oral, 1000 mg, Patient 19, Fasted
[4] = human, plasma, oral, 1000 mg, Patient 19, Fed
[5] = human, plasma, oral, 1000 mg, Patient 20, 1000 mg, Fasted
[6] = human, plasma, oral, 1000 mg, Patient 20, 1000 mg, Fed
[7] = human, plasma, oral, 1000 mg, Patient 20, Fasted
[8] = human, plasma, oral, 1000 mg, Patient 20, Fed
[9] = human, plasma, oral, 1000 mg, Patient 21, 1000 mg, Fasted
[10] = human, plasma, oral, 1000 mg, Patient 21, 1000 mg, Fed
[11] = human, plasma, oral, 1000 mg, Patient 21, Fasted
[12] = human, plasma, oral, 1000 mg, Patient 21, Fed
[13] = human, plasma, po, 1000 mg, mean, 1000 mg single oral dose, Fasted
[14] = human, plasma, po, 1000 mg, mean, 1000 mg single oral dose, Fed
[15] = mean, 1000 mg single oral dose, Fasted
[16] = mean, 1000 mg single oral dose, Fed

With `C[C@]12CC[C@H](O)CC1=CC[C@@H]1[C@@H]2CC[C@]2(C)C(c3cccnc3)=CC[C@@H]12` [Abiraterone] the concentration at 4.033 hr (human, plasma, oral, 1000 mg, Patient 15, Fed, sample time 4.033 hr) was 484 nM, the concentration at 6.083 hr (human, plasma, oral, 1000 mg, Patient 15, Fed, sample time 6.083 hr) was 1120 nM and the concentration at 8.067 hr (human, plasma, oral, 1000 mg, Patient 15, Fed, sample time 8.067 hr) was 512 nM. For the same molecule, the concentration at 24.05 hr (human, plasma, oral, 1000 mg, Patient 15, Fed, sample time 24.050 hr) was 84.3 nM, the concentration at 46.05 hr (human, plasma, oral, 1000 mg, Patient 15, Fed, sample time 46.050 hr) was 18.1 nM and the clearance [1] was 12200 mL/min. For the same molecule, the Vd/F [1] was 8490 L, the clearance [2] was 4900 mL/min and the Vd/F [2] was 4250 L. It also gave an AUC(0-inf) [3] of 3.91 µM·h, an AUC(0-t) [3] of 3.8 µM·h and a Cmax [3] of 432 nM. For the same molecule, the Tmax [3] was 6 h, the concentration at 1.05 hr (human, plasma, oral, 1000 mg, Patient 19, Fasted, sample time 1.050 hr) was 0 nM and the concentration at 2.083 hr (human, plasma, oral, 1000 mg, Patient 19, Fasted, sample time 2.083 hr) was 71.9 nM. It also gave a concentration at 4.017 hr (human, plasma, oral, 1000 mg, Patient 19, Fasted, sample time 4.017 hr) of 334 nM, a concentration at 6 hr (human, plasma, oral, 1000 mg, Patient 19, Fasted, sample time 6.000 hr) of 432 nM and a concentration at 8.017 hr (human, plasma, oral, 1000 mg, Patient 19, Fasted, sample time 8.017 hr) of 177 nM. The concentration at 24.067 hr (human, plasma, oral, 1000 mg, Patient 19, Fasted, sample time 24.067 hr) was 21.6 nM, the concentration at 48.1 hr (human, plasma, oral, 1000 mg, Patient 19, Fasted, sample time 48.100 hr) was 9.1 nM and the AUC(0-inf) [4] was 9.73 µM·h. It also gave an AUC(0-t) [4] of 9.47 µM·h, a Cmax [4] of 1020 nM and a Tmax [4] of 6.13 h. For the same molecule, the concentration at 0.967 hr (human, plasma, oral, 1000 mg, Patient 19, Fed, sample time 0.967 hr) was 0 nM, the concentration at 2.2 hr (human, plasma, oral, 1000 mg, Patient 19, Fed, sample time 2.200 hr) was 466 nM and the concentration at 3.933 hr (human, plasma, oral, 1000 mg, Patient 19, Fed, sample time 3.933 hr) was 973 nM. It also gave a concentration at 6.133 hr (human, plasma, oral, 1000 mg, Patient 19, Fed, sample time 6.133 hr) of 1020 nM, a concentration at 8 hr (human, plasma, oral, 1000 mg, Patient 19, Fed, sample time 8.000 hr) of 344 nM and a concentration at 23.717 hr (human, plasma, oral, 1000 mg, Patient 19, Fed, sample time 23.717 hr) of 63.6 nM. It also gave a concentration at 49.3 hr (human, plasma, oral, 1000 mg, Patient 19, Fed, sample time 49.300 hr) of 18 nM, a clearance [5] of 3680 mL/min and a Vd/F [5] of 4880 L. It also gave a clearance [6] of 2030 mL/min, a Vd/F [6] of 3210 L and an AUC(0-inf) [7] of 13 µM·h. It also gave an AUC(0-t) [7] of 12.1 µM·h, a Cmax [7] of 1700 nM and a Tmax [7] of 2.27 h. For the same molecule, the concentration at 1.017 h [7] was 58.5 nM, the concentration at 2.267 h (human, plasma, oral, 1000 mg, Patient 20, Fasted, sample time 2.267) was 1700 nM and the concentration at 3.833 h (human, plasma, oral, 1000 mg, Patient 20, Fasted, sample time 3.833) was 1270 nM. It also gave a concentration at 6 h [7] of 976 nM, a concentration at 7.917 h (human, plasma, oral, 1000 mg, Patient 20, Fasted, sample time 7.917) of 256 nM and a concentration at 24.283 h (human, plasma, oral, 1000 mg, Patient 20, Fasted, sample time 24.283) of 118 nM. It also gave a concentration at 48.417 h (human, plasma, oral, 1000 mg, Patient 20, Fasted, sample time 48.417) of 40.8 nM, an AUC(0-inf) [8] of 23.5 µM·h and an AUC(0-t) [8] of 22.8 µM·h. It also gave a Cmax [8] of 1580 nM, a Tmax [8] of 8.03 h and a concentration at 1.017 h [8] of 32.2 nM. The concentration at 2 h [8] was 201 nM, the concentration at 4 h [8] was 422 nM and the concentration at 6 h [8] was 1400 nM. For the same molecule, the concentration at 8.033 h [8] was 1580 nM, the concentration at 24 h [8] was 152 nM and the concentration at 47.517 h (human, plasma, oral, 1000 mg, Patient 20, Fed, sample time 47.517) was 55.4 nM. It also gave a concentration at 71.333 h (human, plasma, oral, 1000 mg, Patient 20, Fed, sample time 71.333) of 25.3 nM, a clearance [9] of 6610 mL/min and a Vd/F [9] of 7190 L. The clearance [10] was 6180 mL/min, the Vd/F [10] was 5180 L and the AUC(0-inf) [11] was 7.21 µM·h. It also gave an AUC(0-t) [11] of 6.93 µM·h, a Cmax [11] of 648 nM and a Tmax [11] of 2.17 h. The concentration at 1 h (human, plasma, oral, 1000 mg, Patient 21, Fasted, sample time 1.000) was 414 nM, the concentration at 2.167 h (human, plasma, oral, 1000 mg, Patient 21, Fasted, sample time 2.167) was 648 nM and the concentration at 4.15 h (human, plasma, oral, 1000 mg, Patient 21, Fasted, sample time 4.150) was 360 nM. The concentration at 6.117 h (human, plasma, oral, 1000 mg, Patient 21, Fasted, sample time 6.117) was 396 nM, the concentration at 8.05 h (human, plasma, oral, 1000 mg, Patient 21, Fasted, sample time 8.050) was 231 nM and the concentration at 24.333 h (human, plasma, oral, 1000 mg, Patient 21, Fasted, sample time 24.333) was 65.5 nM. The concentration at 48.083 h [11] was 16.4 nM, the concentration at 71.7 h (human, plasma, oral, 1000 mg, Patient 21, Fasted, sample time 71.700) was 15.2 nM and the AUC(0-inf) [12] was 7.71 µM·h. It also gave an AUC(0-t) [12] of 7.45 µM·h, a Cmax [12] of 1280 nM and a Tmax [12] of 6 h. For the same molecule, the concentration at 1.167 h (human, plasma, oral, 1000 mg, Patient 21, Fed, sample time 1.167) was 17.3 nM, the concentration at 2 h [12] was 64.3 nM and the concentration at 4 h [12] was 102 nM. For the same molecule, the concentration at 6 h [12] was 1280 nM, the concentration at 8.033 h [12] was 372 nM and the concentration at 24 h [12] was 49.3 nM. It also gave a concentration at 48.083 h [12] of 18.9 nM, an AUC(0-inf) [13] of 5.32 µM·h and an AUC(0-t) [13] of 5.03 µM·h. The Cmax [13] was 659 nM, the Tmax [13] was 3.09 h and the Vd/F [13] was 10100 L. The AUC(0-inf) [14] was 12.4 µM·h, the AUC(0-t) [14] was 12.1 µM·h and the Cmax [14] was 1400 nM. For the same molecule, the Tmax [14] was 5.21 h, the Vd/F [14] was 3800 L and the “Cl F obs” value [15] was 861.6 L/h. For the same molecule, the HL [15] was 9.9 h, the “Cl F obs” value [16] was 260.2 L/h and the HL [16] was 10.9 h. For the same molecule, the “effect of food on drug levels” value (patient 21) was “negligible” and the “difference in mean drug levels between the dosing regimes (fed vs fasted)” value (previously (before extended cohort)) was “up to a four fold difference”.

Source: patent US20090124587A1, “METHODS FOR TREATING CANCER USING 17alpha-HYDROXYLASE/C17,20-LYASE INHIBITORS” (priority 2007, published 2009)
